Data reported in article PMC8151276, “An Integrated Approach toward NanoBRET Tracers for Analysis of GPCR Ligand Engagement” (Molecules, 2021).

Key:
Format in all cases: binding
CXCR5 = target: T1, CXCR5 (Homo sapiens, UniProt P32302); test: NanoBRET screen HiBiT-CXCR5 in HEK293; conditions: CXCR5
T1 construct: purchased Promega (in-house HiBiT-GPCR construct library, NanoBRET)
T1 sequence (P32302 1-372): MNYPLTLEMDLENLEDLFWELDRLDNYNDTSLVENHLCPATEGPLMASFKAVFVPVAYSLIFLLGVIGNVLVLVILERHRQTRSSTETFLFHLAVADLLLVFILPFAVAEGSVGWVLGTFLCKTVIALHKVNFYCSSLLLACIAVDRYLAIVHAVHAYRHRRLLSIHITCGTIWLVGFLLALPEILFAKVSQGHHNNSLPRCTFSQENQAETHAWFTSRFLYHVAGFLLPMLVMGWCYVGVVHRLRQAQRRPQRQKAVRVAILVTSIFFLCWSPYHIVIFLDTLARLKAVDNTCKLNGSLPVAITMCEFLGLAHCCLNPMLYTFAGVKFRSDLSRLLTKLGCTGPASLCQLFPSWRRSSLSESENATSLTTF
Summary of the method: (§1)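 Fold response (BRETtracer/BRETcontrol ≥1.5 = positive) was determined in HEK293 cells bearing HiBiT-GPCR fusions. Tracer, 1 μM or 0.1 μM, 1.5 h at room temperature; control wells contained 20 μM competing parental compound.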

FZD2 = target: T2, FZD2 (Homo sapiens, UniProt Q14332); test: NanoBRET screen HiBiT-FZD2 in HEK293; conditions: FZD2
T2 construct: purchased Promega (in-house HiBiT-GPCR construct library, NanoBRET)
T2 sequence (Q14332 24-565): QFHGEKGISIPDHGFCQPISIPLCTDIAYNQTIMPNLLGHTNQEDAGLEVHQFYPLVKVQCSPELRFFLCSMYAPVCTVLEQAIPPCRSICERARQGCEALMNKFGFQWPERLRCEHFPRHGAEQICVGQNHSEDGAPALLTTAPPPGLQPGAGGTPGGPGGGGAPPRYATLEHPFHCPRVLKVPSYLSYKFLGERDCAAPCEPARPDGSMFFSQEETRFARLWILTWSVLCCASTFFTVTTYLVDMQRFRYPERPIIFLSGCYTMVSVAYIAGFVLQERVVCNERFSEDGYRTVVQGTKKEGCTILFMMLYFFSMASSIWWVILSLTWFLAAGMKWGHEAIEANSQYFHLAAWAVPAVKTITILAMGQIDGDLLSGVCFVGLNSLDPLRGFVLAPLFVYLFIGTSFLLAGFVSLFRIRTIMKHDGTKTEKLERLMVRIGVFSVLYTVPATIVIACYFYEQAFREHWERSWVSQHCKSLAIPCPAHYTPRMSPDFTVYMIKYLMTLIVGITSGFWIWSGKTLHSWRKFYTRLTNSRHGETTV
Summary of the method: as §1

NMUR1 = target: T3, NMUR1 (Homo sapiens, UniProt Q9HB89); test: NanoBRET screen HiBiT-NMUR1 in HEK293; conditions: NMUR1
T3 construct: purchased Promega (in-house HiBiT-GPCR construct library, NanoBRET)
T3 sequence (Q9HB89 1-426): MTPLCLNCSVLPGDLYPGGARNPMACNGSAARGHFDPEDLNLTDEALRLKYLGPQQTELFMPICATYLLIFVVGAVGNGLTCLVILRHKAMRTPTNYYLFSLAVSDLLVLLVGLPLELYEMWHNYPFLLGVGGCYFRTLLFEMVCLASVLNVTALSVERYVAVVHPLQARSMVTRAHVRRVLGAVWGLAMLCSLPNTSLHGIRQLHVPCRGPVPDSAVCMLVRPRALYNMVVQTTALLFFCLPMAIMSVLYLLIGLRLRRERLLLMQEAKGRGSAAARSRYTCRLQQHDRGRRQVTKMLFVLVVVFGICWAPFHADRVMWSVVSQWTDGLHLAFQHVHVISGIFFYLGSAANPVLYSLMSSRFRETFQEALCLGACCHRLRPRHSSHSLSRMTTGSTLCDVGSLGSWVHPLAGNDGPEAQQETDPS
Summary of the method: as §1

RXFP2 = target: T4, RXFP2 (Homo sapiens, UniProt Q8WXD0); test: NanoBRET screen HiBiT-RXFP2 in HEK293; conditions: RXFP2
T4 construct: purchased Promega (in-house HiBiT-GPCR construct library, NanoBRET)
T4 sequence (Q8WXD0 whole entry): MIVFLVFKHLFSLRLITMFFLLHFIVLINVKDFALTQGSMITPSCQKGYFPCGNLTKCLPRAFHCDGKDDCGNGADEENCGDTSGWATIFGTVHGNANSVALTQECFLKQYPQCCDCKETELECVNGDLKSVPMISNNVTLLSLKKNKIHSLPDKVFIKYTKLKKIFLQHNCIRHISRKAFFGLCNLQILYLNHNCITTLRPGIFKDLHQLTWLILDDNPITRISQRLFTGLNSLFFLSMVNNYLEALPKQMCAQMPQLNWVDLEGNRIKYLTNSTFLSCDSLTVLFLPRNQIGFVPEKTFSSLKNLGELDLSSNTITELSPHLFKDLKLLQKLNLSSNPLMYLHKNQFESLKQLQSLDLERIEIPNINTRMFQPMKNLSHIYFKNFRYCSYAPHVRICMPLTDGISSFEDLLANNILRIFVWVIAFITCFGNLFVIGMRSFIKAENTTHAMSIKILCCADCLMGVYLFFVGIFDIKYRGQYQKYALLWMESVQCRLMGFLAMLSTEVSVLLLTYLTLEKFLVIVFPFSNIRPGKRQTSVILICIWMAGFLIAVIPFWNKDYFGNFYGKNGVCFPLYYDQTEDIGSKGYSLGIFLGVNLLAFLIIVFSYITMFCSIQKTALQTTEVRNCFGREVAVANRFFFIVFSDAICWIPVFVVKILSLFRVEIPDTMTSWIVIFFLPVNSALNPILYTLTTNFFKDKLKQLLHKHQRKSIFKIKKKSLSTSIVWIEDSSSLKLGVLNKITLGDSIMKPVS
Summary of the method: as §1

SSTR3 = target: T5, SSTR3 (Homo sapiens, UniProt P32745); test: NanoBRET screen HiBiT-SSTR3 in HEK293; conditions: SSTR3
T5 construct: purchased Promega (in-house HiBiT-GPCR construct library, NanoBRET)
T5 sequence (P32745 whole entry): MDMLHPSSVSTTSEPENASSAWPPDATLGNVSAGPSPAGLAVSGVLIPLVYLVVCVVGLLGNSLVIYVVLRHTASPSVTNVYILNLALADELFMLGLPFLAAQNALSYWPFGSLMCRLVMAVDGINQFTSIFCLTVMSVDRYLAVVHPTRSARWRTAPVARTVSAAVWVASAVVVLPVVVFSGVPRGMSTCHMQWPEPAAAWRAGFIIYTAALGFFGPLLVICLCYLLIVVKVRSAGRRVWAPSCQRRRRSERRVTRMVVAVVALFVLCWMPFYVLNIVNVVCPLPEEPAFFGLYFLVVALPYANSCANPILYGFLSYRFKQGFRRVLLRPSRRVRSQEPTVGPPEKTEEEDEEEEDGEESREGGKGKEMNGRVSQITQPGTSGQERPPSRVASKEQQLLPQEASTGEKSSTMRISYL
Summary of the method: as §1

SSTR4 = target: T6, SSTR4 (Homo sapiens, UniProt P31391); test: NanoBRET screen HiBiT-SSTR4 in HEK293; conditions: SSTR4
T6 construct: purchased Promega (in-house HiBiT-GPCR construct library, NanoBRET)
T6 sequence (P31391 whole entry): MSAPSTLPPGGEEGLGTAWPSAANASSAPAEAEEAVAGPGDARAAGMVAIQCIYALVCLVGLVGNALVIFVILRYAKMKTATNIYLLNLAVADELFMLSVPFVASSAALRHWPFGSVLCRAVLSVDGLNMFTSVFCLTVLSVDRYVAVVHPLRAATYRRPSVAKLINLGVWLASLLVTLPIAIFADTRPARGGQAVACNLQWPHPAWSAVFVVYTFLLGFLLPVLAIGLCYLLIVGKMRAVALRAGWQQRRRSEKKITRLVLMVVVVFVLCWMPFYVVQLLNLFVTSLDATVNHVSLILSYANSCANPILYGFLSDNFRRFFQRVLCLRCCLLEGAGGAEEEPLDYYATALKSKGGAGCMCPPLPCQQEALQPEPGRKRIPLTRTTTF
Summary of the method: as §1

SSTR5 = target: T7, SSTR5 (Homo sapiens, UniProt P35346); test: NanoBRET screen HiBiT-SSTR5 in HEK293; conditions: SSTR5
T7 construct: purchased Promega (in-house HiBiT-GPCR construct library, NanoBRET)
T7 sequence (P35346 whole entry): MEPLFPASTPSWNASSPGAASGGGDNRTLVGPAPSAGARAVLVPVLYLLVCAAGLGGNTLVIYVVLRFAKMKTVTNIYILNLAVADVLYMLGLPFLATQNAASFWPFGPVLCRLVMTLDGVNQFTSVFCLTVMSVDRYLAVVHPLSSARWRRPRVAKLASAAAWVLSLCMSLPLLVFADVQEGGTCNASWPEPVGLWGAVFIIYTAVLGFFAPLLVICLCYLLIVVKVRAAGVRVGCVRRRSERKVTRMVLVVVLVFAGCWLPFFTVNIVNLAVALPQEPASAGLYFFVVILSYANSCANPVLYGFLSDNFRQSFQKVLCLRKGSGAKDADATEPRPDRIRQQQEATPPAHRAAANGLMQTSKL
Summary of the method: as §1

GCGR = target: T8, GCGR (Homo sapiens, UniProt P47871); test: NanoBRET screen HiBiT-GCGR in HEK293; conditions: GCGR
T8 construct: purchased Promega (in-house HiBiT-GPCR construct library, NanoBRET)
T8 sequence (P47871 26-477): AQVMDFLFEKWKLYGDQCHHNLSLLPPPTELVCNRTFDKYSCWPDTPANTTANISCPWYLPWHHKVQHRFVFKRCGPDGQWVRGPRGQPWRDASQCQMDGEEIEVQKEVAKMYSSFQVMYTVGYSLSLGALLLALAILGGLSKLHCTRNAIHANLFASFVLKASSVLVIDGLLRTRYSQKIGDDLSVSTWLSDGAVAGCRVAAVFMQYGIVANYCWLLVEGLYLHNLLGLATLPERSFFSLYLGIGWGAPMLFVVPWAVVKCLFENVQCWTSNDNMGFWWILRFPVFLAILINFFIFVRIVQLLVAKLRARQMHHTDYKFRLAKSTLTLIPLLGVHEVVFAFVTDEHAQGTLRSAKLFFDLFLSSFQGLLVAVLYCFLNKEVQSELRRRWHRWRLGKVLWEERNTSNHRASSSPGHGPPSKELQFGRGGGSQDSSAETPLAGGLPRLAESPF
Summary of the method: as §1

| SMILES | NanoBRET Fold Response (CXCR5; tracer 0.1μM) | NanoBRET Fold Response (CXCR5; tracer 1μM) | NanoBRET Fold Response (FZD2; tracer 0.1μM) | NanoBRET Fold Response (FZD2; tracer 1μM) | NanoBRET Fold Response (NMUR1; tracer 0.1μM) | NanoBRET Fold Response (NMUR1; tracer 1μM) | NanoBRET Fold Response (RXFP2; tracer 0.1μM) | NanoBRET Fold Response (RXFP2; tracer 1μM) | NanoBRET Fold Response (SSTR3; tracer 0.1μM) | NanoBRET Fold Response (SSTR3; tracer 1μM) | NanoBRET Fold Response (SSTR4; tracer 0.1μM) | NanoBRET Fold Response (SSTR4; tracer 1μM) | NanoBRET Fold Response (SSTR5; tracer 0.1μM) | NanoBRET Fold Response (SSTR5; tracer 1μM) | NanoBRET Fold Response (GCGR; tracer 0.1μM) | NanoBRET Fold Response (GCGR; tracer 1μM) |
| --- | --- | --- | --- | --- | --- | --- | --- | --- | --- | --- | --- | --- | --- | --- | --- | --- |
| CC(C)N(CC[C@H](c1ccccc1)c1cc(CCNC(=O)CCOCCOCCOCCOCCNC(=O)CCc2ccc3n2[B-](F)(F)[N+]2=C(c4ccc[nH]4)C=CC2=C3)ccc1O)C(C)C [Tolterodine-2-NB590] | 1.31 | 1.00 | 0.91 | 0.95 | 0.94 | 1.12 | 1.11 | 1.30 | 1.08 | 1.17 | 0.97 | 1.14 | 0.93 | 1.04 | 1.32 | 1.04 |
| CC(C)N(CC[C@H](c1ccccc1)c1cc(CCNC(=O)c2ccc(CNC(=O)CCc3ccc4n3[B-](F)(F)[N+]3=C(c5ccc[nH]5)C=CC3=C4)cc2)ccc1O)C(C)C [Tolterodine-BZ-NB590] | 0.86 | 0.91 | 0.95 | 1.01 | 0.78 | 1.02 | 0.34 | 0.83 | 1.01 | 1.04 | 0.99 | 0.93 | 1.08 | 1.04 | 0.82 | 1.00 |
| CCCn1c(=O)c2[nH]c(-c3ccc(OCC(=O)NCCNC(=O)CCOCCNC(=O)c4ccc(CNC(=O)CCc5ccc6n5[B-](F)(F)[N+]5=C(c7ccc[nH]7)C=CC5=C6)cc4)cc3)nc2n(CCC)c1=O [XAC-3-NB590] | 1.23 | 0.87 | 1.09 | 1.04 | 0.91 | 1.00 | 1.20 | 1.28 | 0.99 | 0.98 | 1.01 | 0.93 | 0.99 | 1.01 | 1.03 | 0.96 |
